Experimental data reported in paper PMC8849072, “Sudapyridine (WX-081), a Novel Compound against Mycobacterium tuberculosis” (Microbiology Spectrum, 2022).
≈ marks a conversion by molar mass, not a printed value.

Tests used:
[1] = test system: M. tuberculosis clinical strain 13946; assay: MIC by microplate alamarBlue assay (MABA); assay type: cell-based, Mycobacterium tuberculosis; conditions: strain 13946: resistant to INH SM RFP EMB RBT PAS OFX; for MIC: Mycobacterium tuberculosis
[2] = test system: M. tuberculosis clinical strain 14822; assay: MIC by microplate alamarBlue assay (MABA); assay type: cell-based, Mycobacterium tuberculosis; conditions: strain 14822: resistant to INH SM RFP EMB KM RBT AK 1321 PAS; for MIC: Mycobacterium tuberculosis
[3] = test system: M. tuberculosis clinical strain 15833; assay: MIC by microplate alamarBlue assay (MABA); assay type: cell-based, Mycobacterium tuberculosis; conditions: strain 15833: resistant to INH RFP RFT; for MIC: Mycobacterium tuberculosis
[4] = test system: M. tuberculosis clinical strain 14470; assay: MIC by microplate alamarBlue assay (MABA); assay type: cell-based, Mycobacterium tuberculosis; conditions: strain 14470: resistant to INH SM RFP EMB KM RBT AK CPM 1321 PAS; for MIC: Mycobacterium tuberculosis
[5] = test system: M. tuberculosis clinical strain 14619; assay: MIC by microplate alamarBlue assay (MABA); assay type: cell-based, Mycobacterium tuberculosis; conditions: strain 14619: resistant to INH RFP KM CPM AK 1321 PAS; for MIC: Mycobacterium tuberculosis
[6] = test system: M. tuberculosis clinical strain 13908; assay: MIC by microplate alamarBlue assay (MABA); assay type: cell-based, Mycobacterium tuberculosis; conditions: strain 13908: resistant to INH RFP EMB 1321 PAS OFX LFX; for MIC: Mycobacterium tuberculosis
[7] = test system: M. tuberculosis clinical strain 14282; assay: MIC by microplate alamarBlue assay (MABA); assay type: cell-based, Mycobacterium tuberculosis; conditions: strain 14282: resistant to INH SM RFP EMB RBT 1321 OFX LFX; for MIC: Mycobacterium tuberculosis
[8] = test system: M. tuberculosis clinical strain 14862; assay: MIC by microplate alamarBlue assay (MABA); assay type: cell-based, Mycobacterium tuberculosis; conditions: strain 14862: resistant to INH SM RFP EMB 1321 CPM PAS; for MIC: Mycobacterium tuberculosis
[9] = test system: M. tuberculosis clinical strain 14158; assay: MIC by microplate alamarBlue assay (MABA); assay type: cell-based, Mycobacterium tuberculosis; conditions: strain 14158: resistant to INH SM RFP EMB AK 1321 PAS OFX; for MIC: Mycobacterium tuberculosis
[10] = test system: M. tuberculosis clinical strain 16030; assay: MIC by microplate alamarBlue assay (MABA); assay type: cell-based, Mycobacterium tuberculosis; conditions: strain 16030: resistant to INH RFP RFT; for MIC: Mycobacterium tuberculosis
[11] = test system: M. tuberculosis clinical strain 14441; assay: MIC by microplate alamarBlue assay (MABA); assay type: cell-based, Mycobacterium tuberculosis; conditions: strain 14441: resistant to INH RFP RBT AK CPM 1321 OFX LFX; for MIC: Mycobacterium tuberculosis
[12] = test system: M. tuberculosis clinical strain 16825; assay: MIC by microplate alamarBlue assay (MABA); assay type: cell-based, Mycobacterium tuberculosis; conditions: strain 16825: resistant to INH RFP AK RFT; for MIC: Mycobacterium tuberculosis
[13] = test system: M. tuberculosis clinical strain 14550; assay: MIC by microplate alamarBlue assay (MABA); assay type: cell-based, Mycobacterium tuberculosis; conditions: strain 14550: resistant to INH SM RFP EMB KM CPM AK 1321 PAS; for MIC: Mycobacterium tuberculosis
[14] = test system: M. tuberculosis clinical strain 15321; assay: MIC by microplate alamarBlue assay (MABA); assay type: cell-based, Mycobacterium tuberculosis; conditions: strain 15321: resistant to INH RFP EMB AK ETO OFX RFT; for MIC: Mycobacterium tuberculosis
[15] = test system: M. tuberculosis clinical strain 14092; assay: MIC by microplate alamarBlue assay (MABA); assay type: cell-based, Mycobacterium tuberculosis; conditions: strain 14092: resistant to INH SM RFP; for MIC: Mycobacterium tuberculosis
[16] = test system: M. tuberculosis clinical strain 15833; assay: MBC determination (CFU-based); conditions: strain 15833: resistant to INH RFP RFT; 7 days incubation, 3 log10 CFU decrease
[17] = test system: M. tuberculosis clinical strain 14441; assay: MBC determination (CFU-based); conditions: strain 14441: resistant to INH RFP RBT AK CPM 1321 OFLX LVFX; 7 days incubation, 3 log10 CFU decrease
[18] = test system: M. tuberculosis clinical strain 15321; assay: MBC determination (CFU-based); conditions: strain 15321: resistant to INH RFP EMB AK ETO OFLX RFT; 7 days incubation, 3 log10 CFU decrease
[19] = test system: M. tuberculosis clinical strain 14619; assay: MBC determination (CFU-based); conditions: strain 14619: resistant to INH RFP KM CPM AK 1321 PAS; 7 days incubation, 3 log10 CFU decrease

Structure (SMILES) | MIC [1] [mg/L] | MIC [2] [mg/L] | MIC [3] [mg/L] | MIC [4] [mg/L] | MIC [5] [mg/L] | MIC [6] [mg/L] | MIC [7] [mg/L] | MIC [8] [mg/L] | MIC [9] [mg/L] | MIC [10] [mg/L] | MIC [11] [mg/L] | MIC [12] [mg/L] | MIC [13] [mg/L] | MIC [14] [mg/L] | MIC [15] [mg/L] | MBCs [16] [µg/mL] | MBCs [17] [µg/mL] | MBCs [18] [µg/mL] | MBCs [19] [µg/mL] | other results
NNC(=O)c1ccncc1 [INH, isoniazid] | 1.81 (≈ 13.2 µM) | > 40 | 4.5 (≈ 32.8 µM) | > 40 | 4.38 (≈ 31.9 µM) | 3.01 (≈ 21.9 µM) | 2.35 (≈ 17.1 µM) | 2.17 (≈ 15.8 µM) | > 40 | 2.45 (≈ 17.9 µM) | > 40 | 2.37 (≈ 17.3 µM) | 2.25 (≈ 16.4 µM) | 1.04 (≈ 7.56 µM) | 2.41 (≈ 17.5 µM) |  |  |  |  | 
NC[C@H]1O[C@H](O[C@H]2[C@H](O)[C@@H](O[C@H]3O[C@H](CO)[C@@H](O)[C@H](N)[C@H]3O)[C@H](N)C[C@@H]2N)[C@H](O)[C@@H](O)[C@@H]1O [KM, kanamycin] |  |  |  |  |  |  |  |  |  |  |  |  |  |  |  |  |  |  |  | MICs [1]: 0.788 µg/mL; MICs [2]: >40 µg/mL; MICs [3]: 2.302 µg/mL; MICs [4]: 0.437 µg/mL; MICs [5]: 1.195 µg/mL; MICs [6]: 1.151 µg/mL; MICs [7]: 1.199 µg/mL; MICs [8]: 1.243 µg/mL; MICs [9]: >40 µg/mL; MICs [10]: 1.072 µg/mL; MICs [11]: >40 µg/mL; MICs [12]: >40 µg/mL; MICs [13]: 1.186 µg/mL; MICs [14]: >40 µg/mL; MICs [15]: 1.199 µg/mL
CO[C@H]1/C=C/O[C@@]2(C)Oc3c(C)c(O)c4c(O)c(c(/C=N/N5CCN(C)CC5)c(O)c4c3C2=O)NC(=O)/C(C)=C\C=C\[C@H](C)[C@H](O)[C@@H](C)[C@@H](O)[C@@H](C)[C@H](OC(C)=O)[C@@H]1C [RFP, rifampicin] | > 40 | > 40 | > 40 | > 40 | > 40 | 6.9 (≈ 8.39 µM) | > 40 | 15.2 (≈ 18.5 µM) | > 40 | > 40 | > 40 | > 40 | > 40 | > 40 | > 40 |  |  |  |  | 
COc1nc2ccc(Br)cc2cc1[C@@H](c1ccccc1)[C@@](O)(CCN(C)C)c1cccc2ccccc12 [BDQ, bedaquiline] | 0.021 (≈ 0.0378 µM) | 0.111 (≈ 0.2 µM) | 0.09 (≈ 0.162 µM) | 0.468 (≈ 0.842 µM) | 0.052 (≈ 0.0936 µM) | 0.266 (≈ 0.479 µM) | 0.053 (≈ 0.0954 µM) | 0.006 (≈ 0.0108 µM) | 0.03 (≈ 0.054 µM) | 0.017 (≈ 0.0306 µM) | 0.214 (≈ 0.385 µM) | 0.06 (≈ 0.108 µM) | 0.051 (≈ 0.0918 µM) | 0.028 (≈ 0.0504 µM) | 0.048 (≈ 0.0864 µM) | >0.32 | >2.5 | >0.313 | 0.156 | 
COc1ncc(-c2ccc(Cl)cc2)cc1[C@@H](c1ccccc1)[C@@](O)(CCN(C)C)c1cccc2ccccc12 [WX-081, sudapyridine] | 0.098 (≈ 0.182 µM) | 0.48 (≈ 0.894 µM) | 0.236 (≈ 0.439 µM) | 0.966 (≈ 1.8 µM) | 0.3 (≈ 0.559 µM) | 0.849 (≈ 1.58 µM) | 0.113 (≈ 0.21 µM) | 0.026 (≈ 0.0484 µM) | 0.111 (≈ 0.207 µM) | 0.057 (≈ 0.106 µM) | 0.465 (≈ 0.866 µM) | 0.226 (≈ 0.421 µM) | 0.17 (≈ 0.317 µM) | 0.109 (≈ 0.203 µM) | 0.235 (≈ 0.438 µM) | >1.25 | >5 | >1.25 | 0.313 | 
